Measurements: patent US20250263400A1, “GCN2 MODULATOR COMPOUNDS” (Alesta Therapeutics BV, priority 2022, published 2025)

Each molecule was assayed against GCN2 (Homo sapiens (Human), UniProt Q9P2K8) (assay: GCN2 enzyme assay).
Assay type: biochemical
Description: For GCN2 enzyme assays, testing compounds were prepared at proper concentrations in DMSO solution. IC50 values were calculated from a remaining activity using read conversion ratio.

Sequence of GCN2 (Q9P2K8 whole entry, species assumed): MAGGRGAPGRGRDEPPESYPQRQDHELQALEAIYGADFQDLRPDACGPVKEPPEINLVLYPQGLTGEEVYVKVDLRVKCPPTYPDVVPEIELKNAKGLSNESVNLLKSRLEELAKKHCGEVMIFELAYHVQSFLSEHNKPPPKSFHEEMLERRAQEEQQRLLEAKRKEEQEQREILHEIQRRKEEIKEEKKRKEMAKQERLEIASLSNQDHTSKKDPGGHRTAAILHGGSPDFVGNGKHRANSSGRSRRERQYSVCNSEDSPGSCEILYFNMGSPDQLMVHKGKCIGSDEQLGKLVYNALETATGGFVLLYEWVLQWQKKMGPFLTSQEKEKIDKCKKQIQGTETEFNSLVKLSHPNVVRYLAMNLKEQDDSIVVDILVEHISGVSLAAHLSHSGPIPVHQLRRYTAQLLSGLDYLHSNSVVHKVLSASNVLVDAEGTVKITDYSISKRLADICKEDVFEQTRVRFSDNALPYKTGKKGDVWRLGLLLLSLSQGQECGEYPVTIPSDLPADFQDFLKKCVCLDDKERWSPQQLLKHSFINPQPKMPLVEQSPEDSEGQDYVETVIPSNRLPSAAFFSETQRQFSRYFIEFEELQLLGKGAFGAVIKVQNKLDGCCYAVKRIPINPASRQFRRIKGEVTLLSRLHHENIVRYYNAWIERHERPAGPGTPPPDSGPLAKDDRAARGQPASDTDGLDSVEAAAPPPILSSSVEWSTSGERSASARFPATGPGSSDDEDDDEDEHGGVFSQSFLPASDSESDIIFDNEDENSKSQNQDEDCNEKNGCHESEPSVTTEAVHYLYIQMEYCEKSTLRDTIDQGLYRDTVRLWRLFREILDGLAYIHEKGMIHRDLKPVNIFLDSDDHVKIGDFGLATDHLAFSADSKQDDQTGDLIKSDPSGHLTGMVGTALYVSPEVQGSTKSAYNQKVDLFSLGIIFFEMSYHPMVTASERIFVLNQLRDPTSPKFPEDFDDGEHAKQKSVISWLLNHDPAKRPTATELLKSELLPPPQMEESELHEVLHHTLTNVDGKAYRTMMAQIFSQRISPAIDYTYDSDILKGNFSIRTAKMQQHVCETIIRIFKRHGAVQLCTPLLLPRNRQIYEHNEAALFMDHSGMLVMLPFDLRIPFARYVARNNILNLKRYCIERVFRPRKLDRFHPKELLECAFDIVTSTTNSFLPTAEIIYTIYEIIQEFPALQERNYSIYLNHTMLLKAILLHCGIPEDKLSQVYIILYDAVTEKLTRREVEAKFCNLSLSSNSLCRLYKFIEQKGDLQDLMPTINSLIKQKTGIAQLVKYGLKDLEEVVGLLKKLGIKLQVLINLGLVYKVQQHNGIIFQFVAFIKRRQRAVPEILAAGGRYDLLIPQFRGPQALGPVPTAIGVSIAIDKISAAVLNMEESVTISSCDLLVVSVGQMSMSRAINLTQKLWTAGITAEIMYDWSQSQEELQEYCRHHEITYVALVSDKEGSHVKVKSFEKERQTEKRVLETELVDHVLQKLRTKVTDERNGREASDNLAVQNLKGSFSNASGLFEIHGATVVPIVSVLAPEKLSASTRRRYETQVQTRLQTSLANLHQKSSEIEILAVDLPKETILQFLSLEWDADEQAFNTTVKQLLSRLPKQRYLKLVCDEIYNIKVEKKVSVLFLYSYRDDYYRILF

**Q.** With CCc1cc(-c2c(Cl)cnc(NS(=O)(=O)c3cc(Cl)cc(CO)c3Cl)c2Cl)cc2cnc(N)nc12 [Compound 35, N-(4-(2-amino-8-ethylquinazolin-6-yl)-3,5-dichloropyridin-2-yl)-2,5-dichloro-3-(hydroxymethyl)ben-zenesulfonamide] as the molecule, how does the IC50 read?
**A.** 8.82 nM

**Q.** CCc1cc(-c2c(F)cnc(NS(=O)(=O)c3cc(Cl)cnc3OC)c2F)cc2cnc(N)nc12 [Compound 38, N-(4-(2-amino-8-ethylquinazolin-6-yl)-3,5-difluoropyridin-2-yl)-5-chloro-2-methoxypyridine-3-sulfonamide] was tested. Which IC50 did it give?
**A.** 7.32 nM

**Q.** For CCc1cc(-c2c(Cl)cnc(NS(=O)(=O)c3cc(Cl)cnc3OC)c2Cl)cc2cnc(N)nc12 [Compound 40, N-(4-(2-amino-8-ethylquinazolin-6-yl)-3,5-dichloropyridin-2-yl)-5-chloro-2-methoxypyridine-3-sulfonamide], which IC50 is on record?
**A.** 8.33 nM

**Q.** CCc1cc(-c2c(F)ccc(NS(=O)(=O)c3cc(Cl)cnc3OC)c2F)cc2cnc(N[C@H]3CC[C@H](NC)CC3)nc12 [Compound 45, 5-chloro-N-(3-(8-ethyl-2-(((1R,4R)-4-(methylamino)cyclo-hexyl)amino)quina-zolin-6-yl)-2,4-difluorophenyl)-2-methoxypyridine-3-sulfonamide] was tested. Which IC50 did it give?
**A.** 88.3 nM

**Q.** How did the IC50 turn out when CN[C@H]1CC[C@H](Nc2ncc3cc(-c4c(F)ccc(NS(=O)(=O)c5cc(Cl)cnc5OC)c4F)ccc3n2)CC1 [Compound 48, 5-chloro-N-(2,4-difluoro-3-(2-(((1R,4R)-4-(methylamino)cyclo-hexyl)amino)quina-zolin-6-yl)phenyl)-2-methoxypyridine-3-sulfonamide] was run?
**A.** 3.23 nM

**Q.** CCc1cc(-c2c(F)ccc(NS(=O)(=O)c3cc(Cl)cnc3OC)c2F)cc2cnc(N[C@H]3CC[C@H](N)CC3)nc12 [Compound 52, N-(3-(2-(((1R,4R)-4-aminocyclohexyl)amino)-8-ethylquinazolin-6-yl)-2,4-difluorophenyl)-5-chloro-2-methoxypyridine-3-sulfonamide] was tested. Which IC50 did it give?
**A.** 5.13 nM

**Q.** Which IC50 does the source give for CN(C)[C@H]1CC[C@H](Nc2ncc3cc(-c4c(F)ccc(NS(=O)(=O)c5cc(Cl)cc(CO)c5Cl)c4F)ccc3n2)CC1 [Compound 53, 2,5-dichloro-N-(3-(2-(((1R,4R)-4-(dimethylamino)cy-clohexyl)amino)quinazolin-6-yl)-2,4-difluorophenyl)-3-(hydroxymethyl)ben-zenesulfonamide] here?
**A.** 1.11 nM

**Q.** How did the IC50 turn out when CCc1cc(-c2c(F)ccc(NS(=O)(=O)c3cc(Cl)cnc3OC)c2F)cc2cnc(N[C@@H]3CC[C@@H](C(=O)NCCOC)C3)nc12 [Compound 54, (1R,3R)-3-((6-(3-((5-chloro-2-methoxypyridine)-3-sulfonamido)-2,6-difluorophenyl)-8-ethylquinazolin-2-yl)amino)-N-(2-methoxyethyl)cyclo-pentane-1-carboxamide] was run?
**A.** 34.3 nM

**Q.** Which IC50 does the source give for CCc1cc(-c2c(F)ccc(NS(=O)(=O)c3cc(Cl)cnc3OC)c2F)cc2cnc(N[C@H]3CC[C@H](N(C)C)CC3)nc12 [Compound 57, 5-chloro-N-(3-(2-(((1R,4R)-4-(dimethylamino)cy-clohexyl)amino)-8-ethylquinazolin-6-yl)-2,4-difluorophenyl)-2-methoxypyridine-3-sulfonamide] here?
**A.** 3.95 nM

**Q.** COc1ncc(Cl)cc1S(=O)(=O)Nc1ccc(F)c(-c2ccc3nc(N[C@H]4CC[C@H](N(C)C)CC4)ncc3c2)c1F [Compound 61, 5-chloro-N-(3-(2-(((1R,4R)-4-(dimethylamino)cy-clohexyl)amino)quinazolin-6-yl)-2,4-difluorophenyl)-2-methoxypyridine-3-sulfonamide] was tested. Which IC50 did it give?
**A.** 2.35 nM

**Q.** How did the IC50 turn out when COc1ncc(Cl)cc1S(=O)(=O)Nc1ccc(F)c(-c2ccc3nc(N[C@H]4CC[C@H](N)CC4)ncc3c2)c1F [Compound 62, N-(3-(2-(((1R,4R)-4-aminocyclohexyl)amino)quinazolin-6-yl)-2,4-difluorophenyl)-5-chloro-2-methoxypyridine-3-sulfonamide] was run?
**A.** 1.64 nM

**Q.** CCc1cc(-c2c(F)ccc(NS(=O)(=O)c3ccccc3Cl)c2F)cc2cnc(N[C@H]3CC[C@H](N(C)C)CC3)nc12 [Compound 64, 2-chloro-N-(3-(2-(((1R,4R)-4-(dimethylamino)cy-clohexyl)amino)-8-ethylquinazolin-6-yl)-2,4-difluorophenyl)ben-zenesulfonamide] was tested. Which IC50 did it give?
**A.** 26.8 nM

**Q.** With CCc1cc(-c2c(F)ccc(NS(=O)(=O)c3ccccc3Cl)c2F)cc2cnc(N[C@H]3CC[C@H](NC)CC3)nc12 [Compound 65, 2-chloro-N-(3-(8-ethyl-2-(((1R,4R)-4-(methylamino)cyclo-hexyl)amino)quina-zolin-6-yl)-2,4-difluorophenyl)ben-zenesulfonamide] as the molecule, how does the IC50 read?
**A.** 43.7 nM

**Q.** Which IC50 does the source give for CN[C@H]1CC[C@H](Nc2ncc3cc(-c4c(F)ccc(NS(=O)(=O)c5ccccc5Cl)c4F)ccc3n2)CC1 [Compound 66, 2-chloro-N-(2,4-difluoro-3-(2-(((1R,4R)-4-(methylamino)cyclo-hexyl)amino)quina-zolin-6-yl)phenyl)benzene-sulfonamide] here?
**A.** 63.2 nM

**Q.** Which IC50 does the source give for CCc1cc(-c2c(F)ccc(NS(=O)(=O)c3ccccc3Cl)c2F)cc2cnc(N[C@H]3CC[C@H](N)CC3)nc12 [Compound 68, N-(3-(2-(((1R,4R)-4-aminocyclohexyl)amino)-8-ethylquinazolin-6-yl)-2,4-difluorophenyl)-2-chlorobenzenesulfon-amide] here?
**A.** 39.8 nM

**Q.** With CN(C)[C@H]1CC[C@H](Nc2ncc3cc(-c4c(F)ccc(NS(=O)(=O)c5ccccc5Cl)c4F)ccc3n2)CC1 [Compound 70, 2-chloro-N-(3-(2-(((1R,4R)-4-(dimethylamino)cy-clohexyl)amino)quinazolin-6-yl)-2,4-difluorophenyl)ben-zenesulfonamide] as the molecule, how does the IC50 read?
**A.** 81.2 nM

**Q.** N[C@H]1CC[C@H](Nc2ncc3cc(-c4c(F)ccc(NS(=O)(=O)c5ccccc5Cl)c4F)ccc3n2)CC1 [Compound 71, N-(3-(2-(((1R,4R)-4-aminocyclohexyl)amino)quinazolin-6-yl)-2,4-difluorophenyl)-2-chlorobenzenesulfon-amide 2,2,2-trifluoroacetate] was tested. Which IC50 did it give?
**A.** 123 nM

**Q.** Nc1ncc2cc(-c3c(Cl)cnc(NS(=O)(=O)c4ccccc4Cl)c3Cl)ccc2n1 [Compound 73, N-(4-(2-aminoquinazolin-6-yl)-3,5-dichloropyridin-2-yl)-2-chlorobenzenesulfon-amide] was tested. Which IC50 did it give?
**A.** 19.4 nM

**Q.** Nc1ncc2cc(-c3c(F)cnc(NS(=O)(=O)c4ccccc4Cl)c3F)ccc2n1 [Compound 75, N-(4-(2-aminoquinazolin-6-yl)-3,5-difluoropyridin-2-yl)-2-chlorobenzenesulfon-amide] was tested. Which IC50 did it give?
**A.** 367 nM
